Laboratory results reported in patent US20250109157A1, “COMPOUNDS AND METHODS FOR TREATMENT OF VIRAL INFECTIONS” (Gilead Sciences, Inc., priority 2023, published 2025).

Experiments:
RSV strain A2 = test: RSV EC50 HEp-2 cytopathic cell protection assay; type: cell-based; details: human respiratory syncytial virus, 96 h; HEp-2 cells, RSV strain A2, 4 days, Cell TiterGlo; read-out: RSV EC50 HEp2
MERS-CoV = test: microbe, parasite or virus in culture; type: cell-based; details: Middle East respiratory syndrome-related coronavirus, Vero 76, 72 h, read-out: MERS CoV EC50
HEp-2 CC50 cytotoxicity = type: cell-based; details: human; HEp-2 cells, 4-5 days, CellTiter Glo; read-out: HEp2 CC50
Protocol: (§1) HEp-2 (1.5×10^3 cells/well) or MT4 (2×10^3 cells/well) cells were plated in 384-well plates and incubated with the appropriate medium containing 3-fold serially diluted compound ranging from 15 nM to 100,000 nM. Cells were cultured for 4-5 days at 37° C. Following the incubation, the cells were allowed to equilibrate to 25° C., and cell viability was determined by adding CellTiter Glo viability reagent. The mixture was incubated for 10 min, and the luminescence signal was quantified using an Envision plate reader. Cell lines were not authenticated and were not tested for mycoplasma as part of routine use in cytotoxicity assays.

MT4 CC50 cytotoxicity = type: cell-based; details: human; MT4 cells, 4-5 days, CellTiter Glo
Protocol: as §1

[1] = system: Dengue serotype 2 New Guinea C (NGC) strain; test: DENV EC50 Huh7 qPCR assay; type: cell-based; details: Dengue virus, Huh-7, Huh7 cells, DENV2 NGC, MOI 0.1, 48 hours
Protocol: Huh7 (Human hepatocarcinoma 7) cells were maintained in 10% FCS-containing DMEM complete media. On the day of the assay, cells were trypsinized (0.1% Trypsin-EDTA), washed and infected for 2 hours in serum-free DMEM with Dengue serotype 2 New Guinea C (NGC) strain at MOI=0.1 with gentle agitation at 37° C. After 2 hours, cells were washed with serum-free media and suspended in 10% FCS-containing DMEM (Gibco, supplemented with sodium pyruvate, NEAA, Penicillin-Streptomycin). 10^5 cells were plated in triplicate in 96-well plates with compounds dispensed at graded doses (Hewlett-Packard D300 Digital Dispenser). All wells were normalized to 0.25% DMSO. At 48 hours, cells were washed with 1×PBS and all supernatants removed. Total RNA was extracted using RNEasy 96 plates (Qiagen) and used to generate first-strand cDNA using XLT cDNA 5× Supermix (QuantaBio). cDNA was used as a template in a Taqman qPCR duplex reaction specific to DENV2 viral and GAPDH gene expression. EC50 values were determined using Prism Graphpad software, with normalization to a positive control and no compound negative control wells.

SARS-CoV2-Nluc viruses = test: microbe, parasite or virus in culture; type: cell-based, SARS-CoV-2; details: Severe acute respiratory syndrome coronavirus 2, A549, 48 h
Huh7 CC50 cytotoxicity = type: cell-based; details: human, Huh7 cells, CellTiter-Glo
Protocol: Human hepatocarcinoma 7 (Huh7) cells were maintained in 10% FCS-containing complete DMEM. On day of assay, cells were trypsinized with 0.1% Trypsin-EDTA, washed and cultured in triplicate at 1-2×10^4 cells/well in 96-well plates with compounds dispensed at graded doses (Hewlett-Packard D300 Digital Dispenser). All wells were normalized to 0.25% DMSO. After 48 h, CellTiter-Gio (Promega) was added and incubated for 10 minutes at room temp before reading on a luminometer. % viability curves were calculated against no compound and no cell control wells. CC50 values (compound concentration for reducing 50% of luminescence signal as a measure of cell viability) were determined using Prism Graphpad software.

[2] = A549-hACE2 CC50 cytotoxicity; type: cell-based; details: human, A549-hACE2 cells, CellTiter-Glo
Protocol: The cytotoxicity of compounds was determined in A549-hACE2 cells in the following manner. Compounds (200 nL) were spotted onto 384-well Grenier plates prior to seeding 5000 A549-hACE2 cells/well in a volume of 40 μL culture medium. The plates were incubated at 37° C. for 48 hours with 5% CO2. On day 2, 40 μL of CellTiter-Glo (Promega) was added and mixed 5 times. Plates were read for luminescence on an Envision (PerkinElmer) and the CC50 values were calculated using a nonlinear regression model (four parameters).

Zika virus strain MR766 = test: Zika EC50 Huh7 XTT assay; details: Huh-7, read-out: Zika EC50 Huh7
RSV RNP complexes = RSV RNP complexes (Human respiratory syncytial virus A, UniProt P28887); test: RSV RNP Polymerase IC50 transcription assay; type: biochemical; details: crude RSV RNP complexes, 90 min at 30° C.
Chain of RSV RNP complexes (P03421 whole entry): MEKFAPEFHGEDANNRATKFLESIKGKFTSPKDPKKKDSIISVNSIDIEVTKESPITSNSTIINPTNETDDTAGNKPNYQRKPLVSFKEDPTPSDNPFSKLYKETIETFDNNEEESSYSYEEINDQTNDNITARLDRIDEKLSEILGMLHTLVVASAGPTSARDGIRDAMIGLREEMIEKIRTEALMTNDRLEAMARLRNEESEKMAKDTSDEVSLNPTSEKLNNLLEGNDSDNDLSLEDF
Chain of RSV RNP complexes (P28887 whole entry): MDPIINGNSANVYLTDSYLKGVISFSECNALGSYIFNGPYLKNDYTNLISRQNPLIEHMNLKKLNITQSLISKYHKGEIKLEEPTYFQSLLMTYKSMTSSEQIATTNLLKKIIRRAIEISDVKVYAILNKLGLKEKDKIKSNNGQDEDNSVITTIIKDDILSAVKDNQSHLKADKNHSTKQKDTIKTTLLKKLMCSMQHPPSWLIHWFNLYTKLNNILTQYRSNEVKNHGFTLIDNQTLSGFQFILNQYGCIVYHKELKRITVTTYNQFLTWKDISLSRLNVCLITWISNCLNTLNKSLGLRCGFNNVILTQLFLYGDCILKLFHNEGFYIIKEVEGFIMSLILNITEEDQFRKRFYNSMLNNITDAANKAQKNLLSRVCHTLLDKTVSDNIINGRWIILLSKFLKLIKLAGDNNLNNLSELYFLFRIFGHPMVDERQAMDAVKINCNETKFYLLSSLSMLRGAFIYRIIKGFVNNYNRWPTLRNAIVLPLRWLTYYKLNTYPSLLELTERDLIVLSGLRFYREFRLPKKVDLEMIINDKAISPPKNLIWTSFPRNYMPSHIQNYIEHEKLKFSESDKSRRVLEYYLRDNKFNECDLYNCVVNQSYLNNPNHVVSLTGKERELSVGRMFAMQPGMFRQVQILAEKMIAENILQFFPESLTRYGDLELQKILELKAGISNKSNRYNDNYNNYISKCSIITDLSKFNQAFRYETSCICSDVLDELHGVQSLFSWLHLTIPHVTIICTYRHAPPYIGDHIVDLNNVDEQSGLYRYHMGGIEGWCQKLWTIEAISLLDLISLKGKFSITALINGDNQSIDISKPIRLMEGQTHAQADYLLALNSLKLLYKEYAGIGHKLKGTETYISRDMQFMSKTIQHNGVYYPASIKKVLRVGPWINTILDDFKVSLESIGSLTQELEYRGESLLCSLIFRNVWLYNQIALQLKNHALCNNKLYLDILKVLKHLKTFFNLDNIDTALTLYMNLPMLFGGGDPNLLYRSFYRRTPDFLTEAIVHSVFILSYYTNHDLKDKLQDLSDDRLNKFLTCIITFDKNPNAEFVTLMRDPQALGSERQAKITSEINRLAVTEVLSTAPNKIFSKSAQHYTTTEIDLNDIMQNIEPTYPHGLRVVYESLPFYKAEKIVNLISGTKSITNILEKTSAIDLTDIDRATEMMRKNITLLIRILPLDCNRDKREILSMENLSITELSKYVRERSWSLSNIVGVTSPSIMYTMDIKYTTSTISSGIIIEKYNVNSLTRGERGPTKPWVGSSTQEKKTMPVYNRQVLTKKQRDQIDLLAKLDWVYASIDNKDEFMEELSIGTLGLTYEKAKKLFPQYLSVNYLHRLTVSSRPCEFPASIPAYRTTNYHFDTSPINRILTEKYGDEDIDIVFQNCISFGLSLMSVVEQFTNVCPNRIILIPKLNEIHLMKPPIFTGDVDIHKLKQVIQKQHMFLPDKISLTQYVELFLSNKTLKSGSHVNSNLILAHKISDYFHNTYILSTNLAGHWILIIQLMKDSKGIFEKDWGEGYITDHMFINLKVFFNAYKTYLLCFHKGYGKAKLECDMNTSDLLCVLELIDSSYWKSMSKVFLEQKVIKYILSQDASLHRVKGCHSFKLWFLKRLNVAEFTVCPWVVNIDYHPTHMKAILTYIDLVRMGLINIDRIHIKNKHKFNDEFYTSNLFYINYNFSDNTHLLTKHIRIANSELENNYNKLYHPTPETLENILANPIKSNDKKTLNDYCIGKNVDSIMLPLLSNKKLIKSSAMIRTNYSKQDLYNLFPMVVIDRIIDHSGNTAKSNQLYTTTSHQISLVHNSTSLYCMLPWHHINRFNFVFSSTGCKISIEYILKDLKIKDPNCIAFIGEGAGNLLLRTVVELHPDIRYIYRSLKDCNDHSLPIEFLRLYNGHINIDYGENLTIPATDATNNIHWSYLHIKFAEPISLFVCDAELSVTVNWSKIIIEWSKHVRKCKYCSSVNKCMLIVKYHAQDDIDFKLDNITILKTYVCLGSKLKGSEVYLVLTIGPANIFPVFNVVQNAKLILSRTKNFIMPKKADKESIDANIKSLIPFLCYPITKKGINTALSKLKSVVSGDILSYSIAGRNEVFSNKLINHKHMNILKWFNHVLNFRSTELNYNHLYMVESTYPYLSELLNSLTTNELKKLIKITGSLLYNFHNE
Protocol: Transcription reactions contained 25 μg of crude RSV RNP complexes in 30 μL of reaction buffer (50 mM TRIS-acetate [pH 8.0], 120 mM potassium acetate, 5% glycerol, 4.5 mM MgCl2, 3 mM DTT, 2 mM EGTA, 50 μg/mL BSA, 2.5 U RNasin, 20 μM ATP, 100 μM GTP, 100 μM UTP, 100 μM CTP, and 1.5 μCi [α-^32P] ATP [3,000 Ci/mmol]). The radiolabeled nucleotide used in the transcription assay was selected to match the nucleotide analog being evaluated for inhibition of RSV RNP transcription. To determine whether nucleotide analogs inhibited RSV RNP transcription, compounds were added using a 6-step serial dilution in 5-fold increments. After a 90 min incubation at 30° C., the RNP, reactions were stopped with 350 μL of Qiagen RLT lysis buffer, and the RNA was purified using a Qiagen RNeasy 96 kit. Purified RNA was denatured in RNA sample loading buffer at 65° C. for 10 min and run on a 1.2% agarose/MOPS gel containing 2M formaldehyde. The agarose gel was dried, exposed to a Storm phosphorimaging screen, and developed using a Storm phosphorimager.

DENV2 NS5 = DENV2 NS5 (Dengue virus type 2, UniProt P14340); test: DENGUE sshRNA Polymerase IC50; type: biochemical; details: 100 nM DENV2 NS5, sshRNA template, 90 minutes at 30° C.
Protocol: A 244 nucleotide secondary structureless heteropolymeric RNA (sshRNA) with sequence 5′-(UCAG)20(UCCAAG)14(UCAG)20-3′ (SEQ ID NO: 1) is used as the template with 5′-CUG-3′ primer in the DENV2-NS5 polymerase assay. Six two-fold dilutions of compounds starting from 200 nM and no inhibitor control are plated in 96-well plates. […] Enzyme mix is added to compound dilutions and reactions initiated by the addition of a mixture containing 20 μM of three natural NTP plus 2 μM of analog:base matched competing natural NTP containing 1:100 α-^33P-NTP. After 90 minutes at 30° C., 5 μL of the reaction mixtures are spotted on DE81 anion exchange paper. Filter papers are washed three times with Na2HPO4 (125 mM, pH 9) for 5 minutes, rinsed with water and ethanol, then air-dried and exposed to phosphorimager. Synthesized RNA is quantified using Typhoon Trio Imager and Image Quant TL Software and reaction rates are calculated by linear regression using GraphPad Prism 5.0. IC50 values are calculated in Prism by non-linear regression analysis using the dose-response (variable slope) equation (four-parameter logistic equation): Y=Bottom+(Top−Bottom)/(1+10^((LogIC50−X)*HillSlope)).

POLRMT = POLRMT (Homo sapiens, UniProt O00411); test: MTRNAP SNI single nucleotide incorporation; type: biochemical; details: 376 nM POLRMT, 500 μM NTP analog
Chain of POLRMT (O00411 42-1230): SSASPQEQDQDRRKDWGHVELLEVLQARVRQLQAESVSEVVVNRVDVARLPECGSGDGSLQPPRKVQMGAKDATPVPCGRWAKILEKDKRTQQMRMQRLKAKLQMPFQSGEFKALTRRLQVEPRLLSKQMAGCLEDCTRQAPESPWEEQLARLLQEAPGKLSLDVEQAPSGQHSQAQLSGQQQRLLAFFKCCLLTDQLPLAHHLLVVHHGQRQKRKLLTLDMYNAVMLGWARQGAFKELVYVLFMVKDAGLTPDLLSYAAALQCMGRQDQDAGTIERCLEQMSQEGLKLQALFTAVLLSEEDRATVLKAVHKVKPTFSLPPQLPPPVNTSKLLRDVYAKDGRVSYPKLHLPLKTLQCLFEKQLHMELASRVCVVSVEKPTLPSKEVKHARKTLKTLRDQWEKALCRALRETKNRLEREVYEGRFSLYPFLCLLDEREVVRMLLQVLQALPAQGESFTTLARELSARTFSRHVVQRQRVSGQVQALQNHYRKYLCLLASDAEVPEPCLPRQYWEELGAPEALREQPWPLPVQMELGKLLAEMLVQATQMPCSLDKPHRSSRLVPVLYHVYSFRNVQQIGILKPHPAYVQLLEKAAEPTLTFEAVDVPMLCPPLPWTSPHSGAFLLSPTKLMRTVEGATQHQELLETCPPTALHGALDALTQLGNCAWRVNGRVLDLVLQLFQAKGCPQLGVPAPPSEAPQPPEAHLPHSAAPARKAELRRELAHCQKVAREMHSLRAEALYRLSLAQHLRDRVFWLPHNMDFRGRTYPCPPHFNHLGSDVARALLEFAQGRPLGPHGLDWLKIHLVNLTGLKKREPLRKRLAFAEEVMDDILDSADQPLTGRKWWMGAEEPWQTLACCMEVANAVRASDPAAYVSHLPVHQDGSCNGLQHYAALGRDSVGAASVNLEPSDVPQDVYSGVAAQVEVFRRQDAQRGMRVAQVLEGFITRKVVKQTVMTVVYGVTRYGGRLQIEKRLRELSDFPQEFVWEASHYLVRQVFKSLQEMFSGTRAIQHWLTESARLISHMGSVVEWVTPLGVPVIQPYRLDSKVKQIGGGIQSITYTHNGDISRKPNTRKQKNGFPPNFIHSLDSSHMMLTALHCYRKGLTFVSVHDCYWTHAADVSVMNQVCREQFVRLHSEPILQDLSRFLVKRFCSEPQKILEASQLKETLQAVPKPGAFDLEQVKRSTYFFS
Protocol: A mixture of MTCN buffer (50 mM MES, 25 mM Tris-HCl, 25 mM CAPS, and 50 mM NaCl, pH 7.5), 200 nM 5′-32P-R12/D18, 10 mM MgCl2, 1 mM DTT, and 376 nM POLRMT was preincubated at 30° C. for 1 min. The reaction was started by addition of 500 μM (final) natural NTP or NTP analogs. At selected time points, the reaction mixture was removed and quenched with gel loading buffer containing 100 mM EDTA, 80% formamide, and bromophenol blue, and heated at 65° C. for 5 min. The samples were run on a 20% polyacrylamide gel (8 M urea), and the product formation was quantified using Typhoon Trio Imager and Image Quant TL Software (GE Healthcare, Piscataway, NJ). The rate of single nucleotide incorporation by mt RNA pol was calculated by fitting the product formation using the single exponential equation: [R13]=A(1−e−kt), where [R13] represents the amount (in nM) of the elongated product formed, t represents the reaction time, k represents the observed rate, and A represents the amplitude of the exponential.

Structure (SMILES)	EC50 (RSV strain A2)	EC50 (MERS-CoV)	CC50 (HEp-2 CC50 cytotoxicity)	CC50 (MT4 CC50 cytotoxicity)	EC50 [1]	EC50 (SARS-CoV2-Nluc viruses)	CC50 at 48 h (Huh7 CC50 cytotoxicity)	CC50 at 48 h [2]	EC50 (Zika virus strain MR766)	IC50 (RSV RNP complexes)	IC50 (DENV2 NS5)	MTRNAP SNI (% incorporation) (POLRMT)
N#C[C@@]1(c2csc3c(N)ncnc23)O[C@H](CO)[C@@H](O)[C@H]1O [Compound C1, (2R,3R,4S,5R)-2-(4-aminothieno[3,2-d]pyrimidin-7-yl)-3,4-dihydroxy-5-(hydroxymethyl)tetrahydrofuran-2-carbonitrile]	3.1 µM	2.2 µM	> 100 µM	> 114 µM								
CCC(CC)COC(=O)[C@H](C)NP(=O)(OC[C@H]1O[C@@](C#N)(c2csc3c(N)ncnc23)[C@H](O)[C@@H]1O)Oc1ccccc1 (stereo partly drawn) [Compound C3, 2-ethylbutyl ((((2R,3S,4R,5R)-5-(4-aminothieno[3,2-d]pyrimidin-7-yl)-5-cyano-3,4-dihydroxytetrahydrofuran-2-yl)methoxy)(phenoxy)phosphoryl)-L-alaninate]	0.435 µM		> 37.2 µM	19 µM	1.85 µM	1.19 µM	> 25 µM	> 50 µM	6.94 µM			
N#C[C@@]1(c2csc3c(N)ncnc23)O[C@H](COP(=O)(O)OP(=O)(O)OP(=O)(O)O)[C@@H](O)[C@H]1O [Compound C2, ((2R,3S,4R,5R)-5-(4-aminothieno[3,2-d]pyrimidin-7-yl)-5-cyano-3,4-dihydroxytetrahydrofuran-2-yl)methyl tetrahydrogen triphosphate]										2.91 µM	8.96 µM	0.61 % incorporation
CC(C)(C)C(=O)SCCOP(=O)(OCCSC(=O)C(C)(C)C)OC[C@H]1O[C@@](C#N)(c2csc3c(N)ncnc23)[C@H](O)[C@@H]1O [Compound C4]	2.7 µM		> 50 µM	11.1 µM								
